# Measurements published in PubChem BioAssay AID1919006 (Molecular Pharmacology Branch, DTP, NCI, 2023).
# Values joined by “and” are separate entries in the source; they are usually repeats but may differ in a detail not shown here. Equal values may be shown once.
# System: 885512-296-R-J2-PDC complex spheroid growth, % test/control
# Experiment: Anticancer human tumor 885512-296-R-J2-PDC patient-derived breast carcinoma cell line growth inhibition [AhR]
# Settings: for viability, T/C: stronger effect = lower value
# In short: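 Spheroids combined tumor cells with HUVEC endothelial cells and human MSCs as stroma. AhR antagonists were paired with standard or investigational drugs, each dosed in half-log steps down from near clinical Cmax, or from 10 microM where Cmax was unknown.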
# [1] = curve of first compound, second compound 0.1 µM
# [2] = curve of first compound, second compound 0.316 µM
# [3] = curve of first compound, second compound 1 µM
# [4] = curve of first compound, second compound 3.16 µM
# [5] = curve of first compound, second compound 10 µM
# [6] = second compound 0.1 µM, first compound 0.0316 µM
# [7] = second compound 0.1 µM, first compound 0.1 µM
# [8] = second compound 0.1 µM, first compound 0.316 µM
# [9] = second compound 0.1 µM, first compound 1 µM
# [10] = second compound 0.1 µM, first compound 3.16 µM
# [11] = second compound 0.1 µM, first compound 10 µM
# [12] = second compound 0.316 µM, first compound 0.0316 µM
# [13] = second compound 0.316 µM, first compound 0.1 µM
# [14] = second compound 0.316 µM, first compound 0.316 µM
# [15] = second compound 0.316 µM, first compound 1 µM
# [16] = second compound 0.316 µM, first compound 3.16 µM
# [17] = second compound 0.316 µM, first compound 10 µM
# [18] = second compound 1 µM, first compound 0.0316 µM
# [19] = second compound 1 µM, first compound 0.1 µM
# [20] = second compound 1 µM, first compound 0.316 µM
# [21] = second compound 1 µM, first compound 1 µM
# [22] = second compound 1 µM, first compound 3.16 µM
# [23] = second compound 1 µM, first compound 10 µM
# [24] = second compound 3.16 µM, first compound 0.0316 µM
# [25] = second compound 3.16 µM, first compound 0.1 µM
# [26] = second compound 3.16 µM, first compound 0.316 µM
# [27] = second compound 3.16 µM, first compound 1 µM
# [28] = second compound 3.16 µM, first compound 3.16 µM
# [29] = second compound 3.16 µM, first compound 10 µM
# [30] = second compound 10 µM, first compound 0.0316 µM
# [31] = second compound 10 µM, first compound 0.1 µM
# [32] = second compound 10 µM, first compound 0.316 µM
# [33] = second compound 10 µM, first compound 1 µM
# [34] = second compound 10 µM, first compound 3.16 µM
# [35] = second compound 10 µM, first compound 10 µM
# 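Further: spheroids exposed to compounds for seven days.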
compound,measurement,setting,value
COc1ccc([C@@H](O)c2cc(-c3ncnc4cc(N5CCOCC5)ccc34)c(F)cc2Cl)nn1 + CC(CO)NC(=O)c1cc(-c2ccc(Cl)cc2)nn(-c2cnn(C)c2)c1=O,IC50,[1],> 10000 nM
same,IC50,[2],9460 nM
same,IC50,[3],> 10000 nM
same,IC50,[4],> 10000 nM
same,IC50,[5],4760 nM
same,"viability, T/C",[6],85.7%
same,"viability, T/C",[7],97.2%
same,"viability, T/C",[8],91.2%
same,"viability, T/C",[9],90.7%
same,"viability, T/C",[10],73.2%
same,"viability, T/C",[11],50.2%
same,"viability, T/C",[12],94.1%
same,"viability, T/C",[13],92.1%
same,"viability, T/C",[14],82.8%
same,"viability, T/C",[15],86.3%
same,"viability, T/C",[16],63.6%
same,"viability, T/C",[17],49.5%
same,"viability, T/C",[18],103%
same,"viability, T/C",[19],112%
same,"viability, T/C",[20],95.6%
same,"viability, T/C",[21],91.2%
same,"viability, T/C",[22],78%
same,"viability, T/C",[23],51.4%
same,"viability, T/C",[24],89.6%
same,"viability, T/C",[25],92.1%
same,"viability, T/C",[26],91.5%
same,"viability, T/C",[27],74.2%
same,"viability, T/C",[28],68.6%
same,"viability, T/C",[29],51.3%
same,"viability, T/C",[30],88.1%
same,"viability, T/C",[31],83.6%
same,"viability, T/C",[32],83.2%
same,"viability, T/C",[33],72.1%
same,"viability, T/C",[34],56.6%
same,"viability, T/C",[35],38.1%
NS(=O)(=O)OCC1CC(n2ccc3c(NC4CCc5ccccc54)ncnc32)CC1O (configuration not stated),"viability, T/C",compound 0.0316 µM,87% and 90.8% and 96.4%
same,"viability, T/C",compound 0.1 µM,45.5% and 46.1% and 46.9%
same,"viability, T/C",compound 0.316 µM,13.6% and 12.9% and 16%
same,"viability, T/C",compound 1 µM,6.2% and 6.25% and 7.3%
same,"viability, T/C",compound 3.16 µM,5.6% and 5% and 5.76%
same,"viability, T/C",compound 10 µM,4.67% and 3.65% and 5.16%
same,IC50,curve of compound,88.4 nM and 90.3 nM and 93 nM
O=C(C=Cn1cnc(-c2cc(C(F)(F)F)cc(C(F)(F)F)c2)n1)NNc1cnccn1 + Cc1ccccc1N=Nc1ccc(NC(=O)c2ccnn2C)c(C)c1,IC50,[1],72.9 nM
same,IC50,[2],71 nM
same,IC50,[3],68.1 nM
same,IC50,[4],64.8 nM
same,IC50,[5],40.4 nM
same,"viability, T/C","second compound 0.1 µM, first compound 0.00949 µM",111%
same,"viability, T/C","second compound 0.1 µM, first compound 0.03 µM",113%
same,"viability, T/C","second compound 0.1 µM, first compound 0.0949 µM",31.6%
same,"viability, T/C","second compound 0.1 µM, first compound 0.3 µM",4.42%
same,"viability, T/C","second compound 0.1 µM, first compound 0.949 µM",2.04%
same,"viability, T/C","second compound 0.1 µM, first compound 3 µM",0.74%
same,"viability, T/C","second compound 0.316 µM, first compound 0.00949 µM",114%
same,"viability, T/C","second compound 0.316 µM, first compound 0.03 µM",121%
same,"viability, T/C","second compound 0.316 µM, first compound 0.0949 µM",27.2%
same,"viability, T/C","second compound 0.316 µM, first compound 0.3 µM",4.07%
same,"viability, T/C","second compound 0.316 µM, first compound 0.949 µM",1.17%
same,"viability, T/C","second compound 0.316 µM, first compound 3 µM",0.77%
same,"viability, T/C","second compound 1 µM, first compound 0.00949 µM",118%
same,"viability, T/C","second compound 1 µM, first compound 0.03 µM",115%
same,"viability, T/C","second compound 1 µM, first compound 0.0949 µM",23.7%
same,"viability, T/C","second compound 1 µM, first compound 0.3 µM",4.28%
same,"viability, T/C","second compound 1 µM, first compound 0.949 µM",1.23%
same,"viability, T/C","second compound 1 µM, first compound 3 µM",1.12%
same,"viability, T/C","second compound 3.16 µM, first compound 0.00949 µM",99.1%
same,"viability, T/C","second compound 3.16 µM, first compound 0.03 µM",89.9%
same,"viability, T/C","second compound 3.16 µM, first compound 0.0949 µM",30.1%
same,"viability, T/C","second compound 3.16 µM, first compound 0.3 µM",4.05%
same,"viability, T/C","second compound 3.16 µM, first compound 0.949 µM",1.22%
same,"viability, T/C","second compound 3.16 µM, first compound 3 µM",0.73%
same,"viability, T/C","second compound 10 µM, first compound 0.00949 µM",54.6%
same,"viability, T/C","second compound 10 µM, first compound 0.03 µM",64.4%
same,"viability, T/C","second compound 10 µM, first compound 0.0949 µM",22.7%
same,"viability, T/C","second compound 10 µM, first compound 0.3 µM",3.99%
same,"viability, T/C","second compound 10 µM, first compound 0.949 µM",1.13%
same,"viability, T/C","second compound 10 µM, first compound 3 µM",0.63%
NS(=O)(=O)OCC1CC(n2ccc3c(NC4CCc5ccccc54)ncnc32)CC1O (configuration not stated) + Cc1cncc(-c2nc(NCCc3c[nH]c4ccccc34)c3ncn(C(C)C)c3n2)c1,IC50,[1],90.4 nM
same,IC50,[2],89.4 nM
same,IC50,[3],77.4 nM
same,IC50,[4],43.6 nM
same,IC50,[5],< 31.6 nM
same,"viability, T/C",[6],96.2%
same,"viability, T/C",[7],45.6%
same,"viability, T/C",[8],16.5%
same,"viability, T/C",[9],8.26%
same,"viability, T/C",[10],5.94%
same,"viability, T/C",[11],6.36%
same,"viability, T/C",[12],89.7%
same,"viability, T/C",[13],45.6%
same,"viability, T/C",[14],17.4%
same,"viability, T/C",[15],6.34%
same,"viability, T/C",[16],6.04%
same,"viability, T/C",[17],5.52%
same,"viability, T/C",[18],81.3%
same,"viability, T/C",[19],41%
same,"viability, T/C",[20],13.9%
same,"viability, T/C",[21],5.67%
same,"viability, T/C",[22],4.18%
same,"viability, T/C",[23],4.92%
same,"viability, T/C",[24],58.5%
same,"viability, T/C",[25],28%
same,"viability, T/C",[26],8.09%
same,"viability, T/C",[27],3.67%
same,"viability, T/C",[28],3.02%
same,"viability, T/C",[29],2.73%
same,"viability, T/C",[30],10.3%
same,"viability, T/C",[31],8.3%
same,"viability, T/C",[32],3.54%
same,"viability, T/C",[33],2.33%
same,"viability, T/C",[34],1.76%
same,"viability, T/C",[35],1.73%
